Key:
Escherichia coli [1] = experiment: Synergistic antimicrobial activity against Escherichia coli 25922 assessed as fractional inhibitory concentration index in presence of citronellal by checkerboard broth microdilution assay; type: functional
Staphylococcus aureus = experiment: Synergistic antimicrobial activity against Staphylococcus aureus 25923 assessed as fractional inhibitory concentration index in presence of citral by checkerboard broth microdilution assay; type: functional
Salmonella typhimurium [2] = experiment: Synergistic antimicrobial activity against Salmonella typhimurium 7731 assessed as fractional inhibitory concentration index in presence of citronellal by checkerboard broth microdilution assay; type: functional, Salmonella enterica subsp. enterica serovar Typhimurium
[3] = system: Staphylococcus epidermidis; experiment: Synergistic antimicrobial activity against Staphylococcus epidermidis 12228 assessed as fractional inhibitory concentration index in presence of citral by checkerboard broth microdilution assay; type: functional
Escherichia coli [4] = experiment: Synergistic antimicrobial activity against Escherichia coli 078 assessed as fractional inhibitory concentration by checkerboard broth microdilution assay; type: functional
[5] = Synergistic antimicrobial activity against Salmonella enterica subsp. enterica serovar Pullorum 7913 assessed as fractional inhibitory concentration index in presence of carvacrol by checkerboard broth microdilution assay; type: functional
Salmonella typhimurium [6] = experiment: Synergistic antimicrobial activity against Salmonella typhimurium 7731 assessed as fractional inhibitory concentration index in presence of citral by checkerboard broth microdilution assay; type: functional, Salmonella enterica subsp. enterica serovar Typhimurium
Salmonella typhimurium [7] = experiment: Synergistic antimicrobial activity against Salmonella typhimurium 7731 assessed as fractional inhibitory concentration index in presence of cuminaldehyde by checkerboard broth microdilution assay; type: functional, Salmonella enterica subsp. enterica serovar Typhimurium
Enterococcus faecalis = experiment: Synergistic antimicrobial activity against Enterococcus faecalis 29212 assessed as fractional inhibitory concentration index in presence of thymol by checkerboard broth microdilution assay; type: functional

Compound: CC[C@H](C)[C@H](NC(=O)[C@@H](NC(=O)[C@@H](CCCNC(=N)N)NC(=O)[C@H](C)NC(=O)[C@H](C)NC(=O)[C@@H](N)Cc1cccc2ccccc12)[C@@H](C)CC)C(=O)N[C@@H](CC(C)C)C(=O)N[C@H](CCCNC(=N)N)C(=O)N[C@@H](Cc1c[nH]c2ccccc12)C(=O)N[C@H](CCCNC(=N)N)C(=O)N[C@@H](Cc1ccccc1)C(=O)N[C@@H](CCCNC(=N)N)C(=O)O
- fractional inhibitory concentration index (FICI) (Escherichia coli [1]): 0.25
- fractional inhibitory concentration index (FICI) (Staphylococcus aureus): 0.25
- fractional inhibitory concentration index (FICI) (Salmonella typhimurium [2]): 0.254
- fractional inhibitory concentration index (FICI) [3]: 0.5
- FIC (Escherichia coli [4]): 0.063
- fractional inhibitory concentration index (FICI) [5]: 0.625
- fractional inhibitory concentration index (FICI) (Salmonella typhimurium [6]): 0.141
- fractional inhibitory concentration index (FICI) (Salmonella typhimurium [7]): 0.125
- fractional inhibitory concentration index (FICI) (Enterococcus faecalis): 0.75

— ChEMBL document CHEMBL6087462, “Cuminaldehyde Potentiates Antiproteolytic Peptide Efficacy via Parallel Pathways of Enhanced Inner Membrane-Damaging Activity and Inhibition of Bacterial Energy Metabolism” (J Med Chem, 2025)
